{"source": "patent US20250237648A1", "about": "“BACTERIAL BIOSENSORS FOR DIAGNOSING AND TREATING INFLAMMATION” (Baylor College of Medicine, priority 2022, published 2025)", "format_in_all_cases": "cell-based, Escherichia coli Nissle 1917", "key": {"ykgMO, ent and abt genes": {"test_system": "ykgMO, ent and abt genes", "assay": "RT-qPCR verification of calprotectin-responsive genes with TPEN", "conditions": "30 μM TPEN, LB media, 30 minutes", "from_the_text": "FIGS. 1A-1K. Selection of the ykgMO promoter to sense calprotectin levels and sensitivity of ygkMO, ent and abt biosensors to metal starvation. 1A: Sensitivity of ykgMO (50S Ribosomal Protein L36/L31 type B) promoter (Pykg) biosensor to calprotectin; 1B-ID: Sensitivity of ent (1B), abt (1C), and ykg (1D) promoter constructs to TPEN in M9 media detected by Flow Cytometer; 1E: Minimum inhibitory concentration (MIC) of calprotectin on E. coli Nissile1917 (referred to EcN) in LB media; IF: Upregulation of calprotectin responsive promoters with TPEN induction in LB media verified by RT-qPCR; 1G: Sensitivity of ent promoter construct to TPEN in M9 media detected by plate reader; 1H: Sensitivity of abt promoter construct to TPEN in M9 media detected by plate reader; 1I: Sensitivity of ykg promoter construct to TPEN in M9 media detected by plate reader; 1J: Upregulation of calprotectin responsive ykgMO) promoter with TPEN induction in M9 media verified by RT-qPCR; 1K: Quenching of different ions on Pykg biosensor (EcN/pBSI0). Equimolar (1.5 μM) or 10×-excess (15 μM) of Zn^2+, Mn^2+, and Fe^2+ were added to Pykg biosensor co-cultured with 40 μg/mL calprotectin in M9 media. 1.5 μM (equivalent metal binding capacity of 40 μg/mL calprotectin), 3 μM, or 30 μM co-cultured with E. coli Nissle 1917 biosensors in pure culture. Calprotectin only-N=9. […]"}, "[1]": {"test_system": "Pykg, Pent and Pabt promoter constructs", "assay": "TPEN induction of promoter-sfgfp constructs (fluorescence)", "conditions": "M9 minimal medium", "description": "Selection of the ykgMO promoter to sense calprotectin levels. To assess the ykg, ent, and abt promoters as potential sensors of the metal sequestration activity of calprotectin, Pykg, Pent, and Paht were cloned into plasmid pColE1 driving the expression of superfolder GFP (sfgfp). Sensor fluorescence was next analyzed in M9 minimal medium and used metal chelator TPEN to mimic the metal depletion of calprotectin.\nEcN biosensor constructs were grown to early log phase (˜0.1 OD600) in M9 media with glucose, and were back diluted to 0.01 OD600 and then grown for ˜4 hours aerobically, until OD600 reached ˜0.15. At this point, cells were kept on ice until analysis on a Becton Dickinson FACScan flow cytometer. Flow cytometry runs were performed in 96 well plates. Briefly, 10-40 μL of cells were added to 1 mL of PBS sheath fluid and run through the flow cytometer for a total of 10000 events. Cells were thresholded on forward/side scatter, and .fsc files were analyzed with the FlowCal software. In short, FlowCal identifies the densest region of cells on the associated scatterplot, and analyzes the fluorescent output of 30% of the cells in this region so as to evaluate a homogenous dataset and remove possible outliers. […] In this case, sfGFP output is reported as molecules of equivalent fluorophores (MEF), and was evaluated on the FL1 channel. […]"}, "[2]": {"test_system": "Pykg biosensor (EcN/pBSI0)", "experimental": "To validate that the Pykg is sensitive to zinc but not other metals bound by calprotectin, BSI0 was incubated with 40 μg/mL of calprotectin with or without supplementation of an equimolar amount of zinc, manganese, or iron.\nMixes were similar to the calprotectin induction assays with the addition of zinc sulfate, manganese sulfate, or iron chloride. Concentrations of metals were added in excess of 1× and 10× the binding capacity of 40 μg/mL (1.5 μM) calprotectin. In total, 4 μM and 40 μM of zinc and iron were added, and 2 μM and 20 μM of manganese was added."}, "ykg promoter": {"test_system": "ykg promoter", "assay": "Zur expression optimization for low basal expression of ykg promoter", "conditions": "zur driven by constitutive promoter on same plasmid", "from_the_text": "To increase the dynamic range of the Pykg expression, the high level of basal expression when the operon is not activated by zinc limitation needed to be reduced. It was considered that the basal level of expression was high because the ykg promoter was being expressed from a multicopy plasmid while the Zur repressor was being synthesized from the chromosome, altering their normal stoichiometry. To identify the optimal level of Zur to reduce the basal expression while maintaining the ability to respond to zinc limitation, several constructs were tested in which the zur gene was driven by constitutive promoters of increasing strength on the same plasmid as the ykg promoter (FIG. 2A) . . . . […] Other promoters were either too weak (J23113) to reduce the basal level of promoter expression or were too strong (J23100, J23110) to allow induction of the Pykg upon zinc depletion. Additional studies utilized the J23109 promoter construct, now denoted as pBSI1 (bacterial sensor of inflammation).\nTo reduce the background of Pygk biosensor, zinc binding transcription factor Zur was inserted into pColE-based sensor construct (pColE1-Pykg-sfgfp) under the control of different constitutive expresison promoters. […] The sensitivity and expression strength of new biosensor constructs was analyzed through fluorescence detection and RT-qPCR."}, "[3]": {"test_system": "ykgMO operon (50S Ribosomal Protein L36/L31 type B)", "assay": "RNA sequencing of calprotectin-treated EcN: ykgMO operon", "conditions": "125 μg/mL calprotectin 30 min, LB, over untreated cells", "description": "(§1) It was considered that exposing EcN to a sub-inhibitory concentration of calprotectin that was near the MIC would yield the best opportunity to identify physiologically relevant promoters that respond to calprotectin. The minimal inhibitory concentration of calprotectin (250 μg/mL) was first identified using EcN growth in LB media (FIG. 1E). Therefore, EcN were grown into the mid-exponential phase in LB media and then treated cultures with 125 µg/mL of calprotectin for 30 minutes or without calprotectin as a negative control. As an additional control, a mutant version was used of calprotectin that lacks the ability to bind metals, rendering the protein unable to carry out nutritional immunity.\n(§2) For transcriptome analysis, EcN cells were grown overnight, and then back-diluted 1:100 into 5 mL of LB broth. When cells were grown up to the log phase, the sub-inhibitory amount of calprotectin was added to the cultures at a final concentration of 125 μg/mL. […] RNA was quantified and tested for purity using a Denovix spectrophotometer (Denovix, Wilmington, Delaware). RNA-seq was performed by Applied Biological Materials (ABM) (Richmond, British Columbia, Canada) on an Illumina NextSeq sequencer, at an average of 5 million reads per sample. rRNA depletion and quality check were also performed by ABM. […]"}, "[4]": {"test_system": "ATP-binding cassette transporter cluster (abt)", "assay": "RNA sequencing of calprotectin-treated EcN: abt cluster", "conditions": "125 μg/mL calprotectin 30 min, LB, over untreated cells", "description": "as §1, §2"}, "[5]": {"test_system": "E. coli Nissle 1917 (EcN)", "assay": "Minimum inhibitory concentration of calprotectin on EcN", "conditions": "10^4 EcN cells, overnight, LB media, two-fold dilutions", "description": "Identification of E. coli Nissle promoters responsive to calprotectin. […] Currently, fecal calprotectin levels are used as a non-invasive way of monitoring intestinal inflammation, however compliance with such tests is low due to the need for patients to handle their own feces. Therefore, the development of an ingestible bacterial biosensor that would sense and report intestinal inflammation was contemplated. […] To do this the minimal inhibitory concentration of calprotectin incubated with EcN in vitro was first identified.\nas §1\nTo explore biosensor promoters that can respond to calprotectin, the transcriptome of EcN treated with the sub-inhibitory amount of calprotectin was analyzed. […]"}, "[6]": {"test_system": "siderophore enterobactin operon (ent)", "assay": "RNA sequencing of calprotectin-treated EcN: ent operon", "conditions": "125 μg/mL calprotectin 30 min, LB, over untreated cells", "description": "as §1, §2"}, "[7]": {"conditions": "40 μg/mL calprotectin, equimolar metal, M9"}}, "note": "Where “and” joins values, the source holds several entries; their conditions need not be identical. Identical values can stand only once. Like-named read-outs stand apart in the source and are kept apart here.", "data": [{"molecule": "c1ccc(CN(CCN(Cc2ccccn2)Cc2ccccn2)Cc2ccccn2)nc1", "note": "[TPEN, N,N,N′, N′-tetrakis(2-pyridinylmethyl)-1,2-ethanediamine]", "values": [{"measurement": "gene upregulation by RT-qPCR", "setting": "ykgMO, ent and abt genes", "value": "upregulated"}, {"measurement": "activation of promoter constructs (sfGFP fluorescence) compared to control", "setting": "[1]", "value": "2-3 fold"}]}, {"molecule": "O=S(=O)([O-])[O-].[Zn+2]", "note": "[Zn, zinc sulfate]", "values": [{"measurement": "repression of BSI0 activation in the presence of calprotectin", "setting": "[2]", "value": "totally repress the activation"}]}, {"molecule": "J23109: constitutive promoter (SEQ ID NO: 5) driving zur; construct denoted pBSI1 (DNA TTTACAGCTAGCTCAGTCCTAGGGACTGTGCTAGC; listed as DNA, chemistry not fully specified)", "values": [{"measurement": "reduction of basal expression from the ykg promoter", "setting": "ykg promoter", "value": 100, "unit": "fold"}]}, {"molecule": "J23114: constitutive promoter (SEQ ID NO: 4) driving zur on the ykg promoter plasmid (DNA TTTATGGCTAGCTCAGTCCTAGGTACAATGCTAGC; listed as DNA, chemistry not fully specified)", "values": [{"measurement": "reduction of basal expression from the ykg promoter", "setting": "ykg promoter", "value": 100, "unit": "fold"}]}, {"molecule": "iron chloride [Fe]", "values": [{"measurement": "repression of BSI0 activation in the presence of calprotectin", "setting": "[2]; [7]", "value": "not"}]}, {"molecule": "manganese sulfate [Mn]", "values": [{"measurement": "repression of BSI0 activation in the presence of calprotectin", "setting": "[2]; [7]", "value": "not"}]}, {"molecule": "calprotectin: Recombinant human calprotectin; neutrophil-source antimicrobial protein that sequesters zinc, manganese and iron (protein, UniProt P05109 1-93; P06702 1-114, looked up) Protein S100-A8: MLTELEKALNSIIDVYHKYSLIKGNFHAVYRDDLKKLLETECPQYIRKKGADVWFKELDINTDGAVNFQEFLILVIKMGVAAHKKSHEESHKE Protein S100-A9: MTCKMSQLERNIETIINTFHQYSVKLGHPDTLNQGEFKELVRKDLQNFLKKENKNEKVIEHIMEDLDTNADKQLSFEEFIMLMARLTWASHEKMHEGDEGPGHHHKPGLGEGTP", "values": [{"measurement": "Fold-Change in Gene Expression, ykgMO", "setting": "[3]", "value": "up to 10.3 fold"}, {"measurement": "Fold-Change in Gene Expression, ykgMO", "setting": "[3]; listed as Calprotectin", "value": "4.20-10.26 fold"}, {"measurement": "Fold-Change in Gene Expression, ABC transporter cluster", "setting": "[4]", "value": "3.80-9.44 fold"}, {"measurement": "minimal inhibitory concentration of calprotectin", "setting": "[5]", "value": "256 µg/mL and 250 µg/mL"}, {"measurement": "Fold-Change in Gene Expression, ent operon", "setting": "[6]", "value": "up to 4.8 fold"}, {"measurement": "Fold-Change in Gene Expression, ent operon", "setting": "[6]; listed as Calprotectin", "value": "4.38-4.78 fold"}]}]}
